Assay type in all cases: binding
Experiment [1] deals with T1, PDZ protein (GST-PDZ fusion) (Homo sapiens, UniProt O14745).
T1 construct: made in house; host or cells: E. coli (DH5alpha, BL21 or JM109)
T1 sequence (O14745 1-358): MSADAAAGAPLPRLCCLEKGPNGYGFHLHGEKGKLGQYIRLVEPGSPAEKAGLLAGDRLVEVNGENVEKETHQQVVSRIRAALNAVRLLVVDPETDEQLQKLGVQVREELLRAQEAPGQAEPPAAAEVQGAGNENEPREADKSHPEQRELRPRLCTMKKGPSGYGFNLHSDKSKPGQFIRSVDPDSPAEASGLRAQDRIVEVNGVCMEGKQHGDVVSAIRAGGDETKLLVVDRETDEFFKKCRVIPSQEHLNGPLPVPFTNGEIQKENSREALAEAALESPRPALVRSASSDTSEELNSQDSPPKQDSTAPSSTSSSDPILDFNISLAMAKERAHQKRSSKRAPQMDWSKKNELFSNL
The experiment is described as follows: G' assay (10 uM PL peptide), results of TABLE 7 and TABLE 12. The procedure, abridged:
(§1)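 Biotinylated PL peptides at 10 uM (vs 20 uM in G^0 assay) bound to GST-PDZ fusions; PDZ protein at 5 ug/ml unless another concentration listed. Bound peptide read as A450 nm, classified 0–5 (0 = A450 0; 5 = A450 >4 repeated).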

Experiment [2] concerns the target T2, PDZ protein (GST-PDZ fusion) (Homo sapiens, UniProt Q9BYB0).
T2 construct: made in house; host or cells: E. coli (DH5alpha, BL21 or JM109)
Described as above. The following applies: PDZ SHANK3, PDZ Domain 1. The procedure, abridged: as §1

The target in experiment [3] is T3, PDZ protein (GST-PDZ fusion) (Homo sapiens, UniProt Q9Y566).
T3 construct: made in house; host or cells: E. coli (DH5alpha, BL21 or JM109)
T3 sequence (Q9Y566 whole entry, the tested form may be a part): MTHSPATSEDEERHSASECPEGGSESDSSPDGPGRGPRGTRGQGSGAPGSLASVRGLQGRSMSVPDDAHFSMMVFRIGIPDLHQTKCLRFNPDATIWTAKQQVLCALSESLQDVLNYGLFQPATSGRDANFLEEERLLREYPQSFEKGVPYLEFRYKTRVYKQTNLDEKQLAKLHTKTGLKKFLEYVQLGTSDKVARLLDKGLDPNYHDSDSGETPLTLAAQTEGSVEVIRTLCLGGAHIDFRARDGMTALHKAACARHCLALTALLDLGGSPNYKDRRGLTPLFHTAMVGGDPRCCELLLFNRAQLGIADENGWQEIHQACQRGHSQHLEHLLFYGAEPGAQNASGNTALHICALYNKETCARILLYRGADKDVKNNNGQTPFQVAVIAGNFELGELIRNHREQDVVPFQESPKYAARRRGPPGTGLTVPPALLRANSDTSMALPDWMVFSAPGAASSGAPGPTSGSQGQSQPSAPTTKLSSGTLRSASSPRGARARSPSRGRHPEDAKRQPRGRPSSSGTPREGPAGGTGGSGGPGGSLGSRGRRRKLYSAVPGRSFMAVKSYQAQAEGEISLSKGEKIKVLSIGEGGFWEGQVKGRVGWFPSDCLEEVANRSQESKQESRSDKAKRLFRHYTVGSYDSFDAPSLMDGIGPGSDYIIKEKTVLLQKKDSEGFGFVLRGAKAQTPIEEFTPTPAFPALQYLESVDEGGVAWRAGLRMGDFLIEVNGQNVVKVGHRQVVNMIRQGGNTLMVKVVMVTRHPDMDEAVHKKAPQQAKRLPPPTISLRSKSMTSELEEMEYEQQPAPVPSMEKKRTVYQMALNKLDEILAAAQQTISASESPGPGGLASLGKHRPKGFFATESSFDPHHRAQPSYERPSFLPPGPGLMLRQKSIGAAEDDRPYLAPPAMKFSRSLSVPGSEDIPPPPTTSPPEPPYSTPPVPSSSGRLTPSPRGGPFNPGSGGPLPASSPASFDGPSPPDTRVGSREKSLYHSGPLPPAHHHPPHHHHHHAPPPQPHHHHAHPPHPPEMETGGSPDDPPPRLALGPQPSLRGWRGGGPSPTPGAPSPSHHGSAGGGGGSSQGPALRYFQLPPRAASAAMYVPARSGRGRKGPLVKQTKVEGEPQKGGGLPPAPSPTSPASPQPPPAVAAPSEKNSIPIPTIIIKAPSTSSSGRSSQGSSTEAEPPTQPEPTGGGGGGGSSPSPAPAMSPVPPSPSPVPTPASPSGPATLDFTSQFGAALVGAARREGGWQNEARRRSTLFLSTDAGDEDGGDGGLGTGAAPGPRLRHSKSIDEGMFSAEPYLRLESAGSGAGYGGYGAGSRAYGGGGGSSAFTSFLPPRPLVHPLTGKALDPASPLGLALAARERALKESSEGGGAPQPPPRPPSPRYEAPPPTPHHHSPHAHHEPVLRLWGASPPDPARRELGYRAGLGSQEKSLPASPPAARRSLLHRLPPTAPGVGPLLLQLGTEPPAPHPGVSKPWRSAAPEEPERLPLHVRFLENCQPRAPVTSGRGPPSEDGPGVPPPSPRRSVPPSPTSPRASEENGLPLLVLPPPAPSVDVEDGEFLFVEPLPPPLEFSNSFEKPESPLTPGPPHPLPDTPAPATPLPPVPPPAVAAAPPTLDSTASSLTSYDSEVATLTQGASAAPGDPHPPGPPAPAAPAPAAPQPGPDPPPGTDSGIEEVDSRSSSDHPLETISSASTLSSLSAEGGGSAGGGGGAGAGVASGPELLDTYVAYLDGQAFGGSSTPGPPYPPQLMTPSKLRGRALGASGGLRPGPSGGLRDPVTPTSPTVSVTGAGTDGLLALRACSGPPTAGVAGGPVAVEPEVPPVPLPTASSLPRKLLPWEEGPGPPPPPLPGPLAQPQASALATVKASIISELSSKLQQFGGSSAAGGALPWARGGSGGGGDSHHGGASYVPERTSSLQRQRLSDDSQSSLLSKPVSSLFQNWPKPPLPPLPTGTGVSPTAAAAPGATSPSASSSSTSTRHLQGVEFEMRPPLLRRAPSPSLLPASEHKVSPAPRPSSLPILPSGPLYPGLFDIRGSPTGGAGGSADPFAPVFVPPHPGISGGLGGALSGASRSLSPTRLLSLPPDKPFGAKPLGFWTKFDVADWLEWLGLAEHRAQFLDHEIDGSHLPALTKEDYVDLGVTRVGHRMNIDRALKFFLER
The description is as above. The following applies: PDZ SHANK1, PDZ Domain 1. Summed up:
as §1

Experiment [4] addresses T4, PDZ protein (GST-PDZ fusion) (Homo sapiens, UniProt Q5T2W1).
T4 construct: made in house; host or cells: E. coli (DH5alpha, BL21 or JM109)
T4 sequence (Q5T2W1 1-519): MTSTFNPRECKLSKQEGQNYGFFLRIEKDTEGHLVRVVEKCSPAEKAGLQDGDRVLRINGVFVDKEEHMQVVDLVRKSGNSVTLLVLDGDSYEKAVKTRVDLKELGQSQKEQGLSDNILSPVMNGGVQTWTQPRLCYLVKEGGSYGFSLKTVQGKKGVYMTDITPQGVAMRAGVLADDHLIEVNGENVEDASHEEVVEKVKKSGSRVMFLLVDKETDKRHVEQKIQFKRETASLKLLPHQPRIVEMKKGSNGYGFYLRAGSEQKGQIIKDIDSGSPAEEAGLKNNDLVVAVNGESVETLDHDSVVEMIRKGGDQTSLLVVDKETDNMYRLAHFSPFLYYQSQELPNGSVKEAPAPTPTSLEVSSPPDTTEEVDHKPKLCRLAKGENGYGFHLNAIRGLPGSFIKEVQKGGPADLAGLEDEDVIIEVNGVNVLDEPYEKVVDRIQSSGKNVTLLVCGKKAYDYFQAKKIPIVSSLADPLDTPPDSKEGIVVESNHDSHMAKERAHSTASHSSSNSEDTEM
Described as above. The following applies: PDZ PDZK-1, PDZ Domain 2. The procedure, abridged: as §1

For experiment [5], the target named is T5, PDZ-domain polypeptide (GST/PDZ fusion protein) (Homo sapiens, UniProt Q5T2W1).
T5 construct: made in house; host or cells: E. coli (DH5alpha, BL21 or JM109)
The experiment in a line: Apparent affinity (Kd) by titration of PL peptide in the G assay. The following applies: Peptide Optimal Conc (Kd by titration of the PL peptide), PDZ PDZK-1, PDZ Domain 2. As for the experimental part: (§2) The third column labeled “Peptide Optimal Concentration” in the tables is a number reflective of the binding interaction between the PL protein and PDZ protein. […] The column labeled “Protein Optimal Concentration” refers to the protein concentration used to assay PL interaction (in ug/ml); a ‘0’ is indicative of 5 ug/ml protein concentration; any other value represents the concentration (in ug/ml) used to determine the dissociation constant for a given interaction.
The “A” and “G” assays described supra can be used to determine the “apparent affinity” of binding of a PDZ ligand peptide to a PDZ-domain polypeptide. Apparent affinity is determined based on the concentration of one molecule required to saturate the binding of a second molecule (e.g., the binding of a ligand to a receptor). Two particularly useful approaches for quantitation of apparent affinity of PDZ-ligand binding are provided infra.
In cases where satisfying the above criteria proves difficult, an alternative approach (infra) can be used.
(1) A fixed concentration of a PDZ-domain polypeptide and increasing concentrations of a labeled PL peptide (labeled with, for example, biotin or fluorescein, see TABLE 9 for representative peptide amino acid sequences) are mixed together in solution and allowed to react. In certain assays, peptide concentrations are 0.1 uM, 1 uM, 10 uM, 100 uM, 1 mM. In other assays, appropriate reaction times can range from 10 minutes to 2 days at temperatures ranging from 4° C. to 37° C. In some instances, the identical reaction can also be carried out using a non-PDZ domain-containing protein as a control (e.g., if the PDZ-domain polypeptide is fusion protein, the fusion partner can be used).
(2) PDZ-ligand complexes can be separated from unbound labeled peptide using a variety of methods known in the art.
(3) The PDZ-ligand complex is detected based on presence of the label on the peptide ligand using a variety of methods and detectors known to one of skill in the art. For example, if the label is fluorescein and the separation is achieved using HPSEC, an in-line fluorescence detector can be used. The binding can also be detected as described supra for the G assay.

Experiment [6] concerns the target T6, KIAA0807(S) (PDZ Domain 1) (Homo sapiens, UniProt Q6P0Q8).
T6 construct: made in house; host or cells: E. coli (DH5alpha, BL21 or JM109)
T6 sequence (Q6P0Q8 with tags, fused parts or gaps): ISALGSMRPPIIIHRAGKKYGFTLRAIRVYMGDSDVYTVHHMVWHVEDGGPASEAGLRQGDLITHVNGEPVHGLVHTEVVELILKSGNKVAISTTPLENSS
The experiment in a line: G' assay and Kd titration, TABLE 12. As for the experimental part: as §2
(§3) Finally, the seventh column labeled “Classification” is another measure of the level of binding. In particular, it provides an absorbance value at 450 nm which indicates the amount of PL peptide bound to the PDZ protein. The following numerical values have the following meanings: ‘1’—A450 nm 0-1; ‘2’—A450 nm 1-2; ‘3’—A450 nm 2-3; ‘4’—A450 nm 3-4; ‘5’—A450 nm of 4 more than 2× repeated; ‘0’—A450 nm 0, i.e., not found to interact. Thus, higher numbers indicate stronger interactions.
For convenience, the assay conditions described in this section are referred to as the “G′ assay” and the “G″ assay,” with the specific conditions described in the preceding section on G assays being referred to as the “G^0 assay.” The “G′ assay” is identical to the “G^0 assay” except at step (2) the peptide concentration is 10 uM instead of 20 uM.

The target of the next experiment is T7, KIAA807 (Homo sapiens, UniProt Q6P0Q8).
T7 construct: made in house; host or cells: E. coli (DH5alpha, BL21 or JM109)
T7 sequence (Q6P0Q8 1104-1192 limits assumed): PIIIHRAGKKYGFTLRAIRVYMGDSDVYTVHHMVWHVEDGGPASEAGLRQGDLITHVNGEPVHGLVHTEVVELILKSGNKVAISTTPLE
The experiment is described as follows: G' assay, TABLE 12. Particulars: A450 nm class of biotinylated PL peptide bound; 0 in conc columns = peptide 10 uM, protein 5 ug/ml. How it is done:
as §2, §3
(§4) For convenience, the assay conditions described in this section are referred to as the “G′ assay” and the “G″ assay,” with the specific conditions described in the preceding section on G assays being referred to as the “G^0 assay.” The “G′ assay” is identical to the “G^0 assay” except at step (2) the peptide concentration is 10 uM instead of 20 uM. […] Correspondingly, it slightly increases the certainty that detected interactions are of sufficient affinity and half-life to be of biological importance and useful therapeutic targets.

In experiment [7] the target is T8, PDZK1 (PDZ Domain 2, 3, 4) (Homo sapiens, UniProt Q5T2W1).
T8 construct: When more than one PDZ domain was cloned, the DNA portion cloned represents the PDZ domains and the cDNA portion located between individual domains; made in house; host or cells: E. coli (DH5alpha, BL21 or JM109)
The experiment in a line: G' assay, TABLE 12. The following applies: A450 nm class of biotinylated PL peptide bound; 0 in conc columns = peptide 10 uM, protein 5 ug/ml. As for the experimental part: as §2, §3, §4

The target of a further experiment is T9, KIAA0561 (PDZ Domain 1) (Homo sapiens, UniProt O60307).
T9 construct: made in house; host or cells: E. coli (DH5alpha, BL21 or JM109)
T9 sequence (O60307 with tags, fused parts or gaps): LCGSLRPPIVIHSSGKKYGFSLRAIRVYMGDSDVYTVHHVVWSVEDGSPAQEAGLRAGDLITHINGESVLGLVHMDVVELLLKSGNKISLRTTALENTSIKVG
The experiment is described as follows: G' assay, TABLE 12. The following applies: A450 nm class of biotinylated PL peptide bound; 0 in conc columns = peptide 10 uM, protein 5 ug/ml. As for the experimental part: as §2, §3, §4

Structures are written as SMILES. Peptide text beside a SMILES is read from it. * marks the point of attachment. Biotin = O=C1N[C@H]2[C@H](CS[C@H]2CCCCC(=O)*)N1

Among the data in patent US20050282743A1, “Molecular interactions in cells” (Arbor Vita Corporation, priority 2001, published 2005) are Classification and Kd values, retold here.

T2 sequence (Q9BYB0 whole entry, the tested form may be a part): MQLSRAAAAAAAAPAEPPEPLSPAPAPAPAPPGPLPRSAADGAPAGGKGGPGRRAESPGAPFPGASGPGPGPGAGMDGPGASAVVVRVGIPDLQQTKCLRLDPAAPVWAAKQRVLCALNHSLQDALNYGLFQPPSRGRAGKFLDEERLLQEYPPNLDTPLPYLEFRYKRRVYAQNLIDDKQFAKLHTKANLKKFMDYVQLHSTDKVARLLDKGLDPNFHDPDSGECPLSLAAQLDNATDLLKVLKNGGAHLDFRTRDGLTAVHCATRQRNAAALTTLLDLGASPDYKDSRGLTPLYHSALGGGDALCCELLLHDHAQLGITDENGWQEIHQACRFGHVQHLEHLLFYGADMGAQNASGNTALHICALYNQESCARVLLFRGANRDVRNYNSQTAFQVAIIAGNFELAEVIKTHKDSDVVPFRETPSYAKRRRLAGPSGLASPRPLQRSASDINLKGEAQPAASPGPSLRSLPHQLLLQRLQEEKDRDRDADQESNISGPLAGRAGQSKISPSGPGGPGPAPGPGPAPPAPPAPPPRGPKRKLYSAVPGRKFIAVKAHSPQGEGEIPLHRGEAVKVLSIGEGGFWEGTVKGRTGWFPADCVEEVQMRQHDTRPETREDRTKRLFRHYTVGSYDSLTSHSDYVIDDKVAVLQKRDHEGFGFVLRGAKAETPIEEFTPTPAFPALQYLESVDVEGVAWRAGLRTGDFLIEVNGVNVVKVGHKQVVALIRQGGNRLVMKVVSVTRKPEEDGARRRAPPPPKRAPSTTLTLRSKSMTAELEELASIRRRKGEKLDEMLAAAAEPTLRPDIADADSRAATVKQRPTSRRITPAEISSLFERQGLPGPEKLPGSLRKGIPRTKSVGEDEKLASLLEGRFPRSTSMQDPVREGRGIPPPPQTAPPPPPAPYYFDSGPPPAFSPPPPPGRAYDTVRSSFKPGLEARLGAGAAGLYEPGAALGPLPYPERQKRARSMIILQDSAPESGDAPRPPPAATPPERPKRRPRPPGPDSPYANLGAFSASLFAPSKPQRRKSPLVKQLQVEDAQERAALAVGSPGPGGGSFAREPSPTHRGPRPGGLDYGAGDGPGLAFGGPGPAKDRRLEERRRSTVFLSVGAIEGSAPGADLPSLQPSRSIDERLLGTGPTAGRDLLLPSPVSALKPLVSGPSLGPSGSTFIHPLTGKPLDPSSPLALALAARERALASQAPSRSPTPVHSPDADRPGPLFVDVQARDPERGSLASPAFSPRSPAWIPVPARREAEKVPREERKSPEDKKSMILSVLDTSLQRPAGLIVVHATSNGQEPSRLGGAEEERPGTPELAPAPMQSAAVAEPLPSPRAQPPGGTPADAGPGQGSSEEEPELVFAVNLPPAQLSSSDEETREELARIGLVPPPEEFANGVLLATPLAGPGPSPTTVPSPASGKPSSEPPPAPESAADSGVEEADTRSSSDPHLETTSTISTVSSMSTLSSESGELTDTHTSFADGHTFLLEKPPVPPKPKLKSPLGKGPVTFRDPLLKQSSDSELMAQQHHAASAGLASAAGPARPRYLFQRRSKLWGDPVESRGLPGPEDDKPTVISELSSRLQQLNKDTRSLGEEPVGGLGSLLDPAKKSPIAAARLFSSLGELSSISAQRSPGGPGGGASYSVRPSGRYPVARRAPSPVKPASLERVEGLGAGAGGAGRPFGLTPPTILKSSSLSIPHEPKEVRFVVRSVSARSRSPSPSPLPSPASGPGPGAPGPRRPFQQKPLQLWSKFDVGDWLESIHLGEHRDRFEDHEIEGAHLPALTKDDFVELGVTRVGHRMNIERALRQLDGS

`CC(C)C[C@H](NC(=O)[C@H](CO)NC(=O)[C@H](CO)NC(=O)[C@H](CCCNC(=N)N)NC(=O)[C@H](CCCNC(=N)N)NC(=O)[C@H](Cc1c[nH]c2ccccc12)NC(=O)[C@H](CO)NC(=O)[C@@H]1CCCN1C(=O)CCCC[C@@H]1SC[C@@H]2NC(=O)N[C@@H]21)C(=O)N[C@@H](CO)C(=O)N[C@@H](CCC(=O)O)C(=O)N[C@@H](CO)C(=O)N[C@@H](CCC(=O)O)C(=O)N[C@@H](CC(N)=O)C(=O)N[C@@H](C)C(=O)N[C@H](C(=O)N[C@@H](CO)C(=O)N[C@@H](CC(C)C)C(=O)N[C@H](C(=O)N[C@H](C(=O)N[C@@H](Cc1ccccc1)C(=O)O)[C@@H](C)O)[C@@H](C)O)[C@@H](C)O` [BLR-1] (Biotin-PSWRRSSLSESENATSLTTF-OH; C-terminus assumed): the Classification in experiment [1] (PDZ EBP50, PDZ Domain 1) is reported as 3 (A450 nm 2-3); in experiment [1] (PDZ EBP50, PDZ Domain 2), 3 (A450 nm 2-3); in [2] it was 3 (A450 nm 2-3); in experiment [3], 3 (A450 nm 2-3); in experiment [4], 1 (A450 nm 0-1); in [6] (A450 nm class of biotinylated PL peptide bound, 0 in conc columns = peptide 10 uM, protein 5 ug/ml) it was 2 (A450 nm 1-2). In addition, the Classification on KIAA807 is on record as 2 (A450 nm 1-2); in [7], 1 (A450 nm 0-1); on KIAA0561 (PDZ Domain 1), 1 (A450 nm 0-1). The Kd in [5] was 2000 nM; in experiment [6] it was 1000 nM.
